# Measured values reported in US9150568B2, “Compositions and methods for modulating FXR” (NOVARTIS AG, priority 2010, dated 2015).
# Biological target: T1, human Farnesoid X Receptor (FXR) ligand binding domain (GST-FXR LBD) (Homo sapiens, UniProt Q96RI1)
# T1 construct: purchased Invitrogen
# T1 sequence (Q96RI1 193-472 isoform Q96RI1-2): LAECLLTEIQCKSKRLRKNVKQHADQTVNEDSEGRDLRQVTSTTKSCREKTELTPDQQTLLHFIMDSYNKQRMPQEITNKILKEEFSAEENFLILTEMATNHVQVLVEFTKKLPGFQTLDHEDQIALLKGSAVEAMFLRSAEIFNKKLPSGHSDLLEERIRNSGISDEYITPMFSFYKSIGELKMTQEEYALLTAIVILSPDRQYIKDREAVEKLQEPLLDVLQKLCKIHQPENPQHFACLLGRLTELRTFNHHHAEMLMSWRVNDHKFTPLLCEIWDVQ
# Test: Human GST-FXR LBD co-activator interaction assay (HTRF)
# Assay type: biochemical
# Conditions: GST-FXR LBD / biotin-SRC-1 peptide FRET; response relative to GW4064; read-out: FXR Co-activator interaction assay (EC50)
# How it was run: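 FRET (HTRF) read-out of ligand-induced binding between GST-FXR LBD and an SRC-1 peptide, detected with anti-GST cryptate and streptavidin-XL665 in buffer with 50 mM KF. Response % was normalized to DMSO and to the maximal GW4064 response. EC50 came from a four-parameter fit.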
row,SMILES,EC50 [nM]
1,Cc1nc(N2C3CC[C@H]2CC(OCc2c(-c4ccccc4C(F)(F)F)noc2C2CC2)C3)ccc1C(=O)O (stereo partly drawn) [Example 30-45],18
2,Cc1ccccc1-c1noc(C2CC2)c1CO[C@H]1C[C@H]2CC[C@@H](C1)N2c1ccc(C(=O)O)c(C)n1 [Example 30-46],220
3,Cc1nc(N2[C@@H]3CC[C@H]2C[C@@H](OCc2c(-c4c(F)cccc4F)noc2C2CC2)C3)ccc1C(=O)O [Example 30-47],120
4,Cc1nc(N2[C@@H]3CC[C@H]2C[C@@H](OCc2c(-c4ccccc4F)noc2C2CC2)C3)ccc1C(=O)O [Example 30-48],34
5,Cc1cccc(C)c1-c1noc(C2CC2)c1COC1CC2CC[C@@H](C1)N2c1ccc(C(=O)O)c(C)n1 (stereo partly drawn) [Example 30-49],140
6,Cc1nc(N2[C@@H]3CC[C@H]2C[C@@H](OCc2c(-c4cccc(F)c4)noc2C2CC2)C3)ccc1C(=O)O [Example 30-50],700
7,Cc1cccc(F)c1-c1noc(C2CC2)c1CO[C@H]1C[C@H]2CC[C@@H](C1)N2c1ccc(C(=O)O)c(C)n1 [Example 30-51],52
8,Cc1nc(N2C3CC[C@H]2CC(OCc2c(-c4c(F)cccc4Cl)noc2C2CC2)C3)ccc1C(=O)O (stereo partly drawn) [Example 30-52],26
9,O=C(O)c1ccc2nc(N3C4CC[C@H]3CC(OCc3c(-c5ccccc5OC(F)(F)F)noc3C3CC3)C4)ccc2c1 (stereo partly drawn) [Example 30-53],1
10,O=C(O)c1ccc2nc(N3C4CC[C@H]3CC(OCc3c(-c5ccccc5C(F)(F)F)noc3C3CC3)C4)ccc2c1 (stereo partly drawn) [Example 30-54],16
11,O=C(O)c1cccc2nc(N3C4CC[C@H]3CC(OCc3c(-c5ccccc5OC(F)(F)F)noc3C3CC3)C4)ccc12 (stereo partly drawn) [Example 30-55],1
12,O=C(O)c1ccc2c(N3C4CC[C@H]3CC(OCc3c(-c5ccccc5OC(F)(F)F)noc3C3CC3)C4)ncnc2c1 (stereo partly drawn) [Example 30-56],5.7
13,Cn1ccc2c(N3C4CC[C@H]3CC(OCc3c(-c5ccccc5OC(F)(F)F)noc3C3CC3)C4)ncc(C(=O)O)c21 (stereo partly drawn) [Example 30-58],210
14,O=C(O)c1cnn2ccc(N3C4CC[C@H]3CC(OCc3c(-c5ccccc5OC(F)(F)F)noc3C3CC3)C4)nc12 (stereo partly drawn) [Example 30-59],92
15,O=C(O)c1cnc2ccc(N3C4CC[C@H]3CC(OCc3c(-c5ccccc5OC(F)(F)F)noc3C3CC3)C4)nn12 (stereo partly drawn) [Example 30-60],94
16,O=C(O)c1ccc2nc(N3C4CC[C@H]3CC(OCc3c(-c5ccc(F)cc5F)noc3C3CC3)C4)sc2c1 (stereo partly drawn) [Example 30-61],2
17,O=C(O)c1ccc(N2C3CC[C@H]2CC(OCc2c(-c4ccc(F)cc4F)noc2C2CC2)C3)nc1 (stereo partly drawn) [Example 30-63],57
18,COc1cc(C(=O)O)cc2sc(N3C4CC[C@H]3CC(OCc3c(-c5cccc(F)c5F)noc3C3CC3)C4)nc12 (stereo partly drawn) [Example 30-64],7

row,SMILES,EC50 [nM]
1,O=C(O)c1ccc(N2[C@@H]3CC[C@H]2C[C@@H](OCc2c(-c4cccc(F)c4F)noc2C2CC2)C3)nc1 [Example 30-65],86
2,Cc1cc(C(=O)O)nc(N2C3CC[C@H]2CC(OCc2c(-c4cccc(F)c4F)noc2C2CC2)C3)n1 (stereo partly drawn) [Example 30-66],220
3,COc1cc(C(=O)O)cc2sc(N3[C@@H]4CC[C@H]3C[C@@H](OCc3c(-c5ccccc5F)noc3C3CC3)C4)nc12 [Example 30-67],0.5
4,Cc1cc(C(=O)O)nc(N2C3CC[C@H]2CC(OCc2c(-c4ccccc4F)noc2C2CC2)C3)n1 (stereo partly drawn) [Example 30-68],13
5,O=C(O)c1ccc(N2[C@@H]3CC[C@H]2C[C@@H](OCc2c(-c4ccccc4F)noc2C2CC2)C3)nc1 [Example 30-69],21
6,O=C(O)c1ccc2nc(N3C4CC[C@H]3CC(OCc3c(-c5c(Cl)cccc5Cl)noc3C3CC3)C4)sc2c1 (stereo partly drawn) [Example 30-70],0.2
7,COc1cc(C(=O)O)cc2sc(N3[C@@H]4CC[C@H]3C[C@@H](OCc3c(-c5c(Cl)cccc5Cl)noc3C3CC3)C4)nc12 [Example 30-71],0.3
8,O=C(O)c1ccc(N2C3CC[C@H]2CC(OCc2c(-c4c(Cl)cccc4Cl)noc2C2CC2)C3)nc1 (stereo partly drawn) [Example 30-72],1.4
9,O=C(O)c1ccc(N2C3CC[C@H]2CC(OCc2c(-c4cccnc4C(F)(F)F)noc2C2CC2)C3)nc1 (stereo partly drawn) [Example 30-73],74
10,O=C(O)c1csc(N2C3CC[C@H]2CC(OCc2c(-c4ccccc4OC(F)(F)F)noc2C2CC2)C3)n1 (stereo partly drawn) [Example 30-74],3
11,O=C(O)c1cnc(N2C3CC[C@H]2CC(OCc2c(-c4ccccc4OC(F)(F)F)noc2C2CC2)C3)s1 (stereo partly drawn) [Example 30-75],17
12,O=C(O)c1cnc(N2C3CC[C@H]2CC(OCc2c(-c4ccccc4C(F)(F)F)noc2C2CC2)C3)s1 (stereo partly drawn) [Example 30-76],16
13,O=C(O)c1cn2nc(N3C4CC[C@H]3CC(OCc3c(-c5ccccc5C(F)(F)F)noc3C3CC3)C4)ccc2n1 (stereo partly drawn) [Example 31-2],13
14,O=C(O)c1cc2nc(N3C4CC[C@H]3CC(OCc3c(-c5ccccc5OC(F)(F)F)noc3C3CC3)C4)ccn2n1 (stereo partly drawn) [Example 31-3],2
15,O=C(O)c1cc2nc(N3C4CC[C@H]3CC(OCc3c(-c5ccccc5C(F)(F)F)noc3C3CC3)C4)ccn2n1 (stereo partly drawn) [Example 31-4],4
16,O=C(O)c1cn2nc(N3[C@@H]4CC[C@H]3C[C@@H](OCc3c(-c5c(F)cccc5F)noc3C3CC3)C4)ccc2n1 [Example 31-5],10
17,Cc1cccc(F)c1-c1noc(C2CC2)c1CO[C@H]1C[C@H]2CC[C@@H](C1)N2c1ccc2nc(C(=O)O)cn2n1 [Example 31-6],9
18,O=C(O)c1cnn2ccc(N3[C@@H]4CC[C@H]3C[C@@H](OCc3c(-c5ccccc5OC(F)(F)F)noc3C3CC3)C4)cc12 [Example 32-2],4
